From US7939091B2, “Biorational repellents obtained from terpenoids for use against arthropods” (Iowa State University Research Foundation, Inc., priority 1999, dated 2011)

What was measured:
[1] = tested on: German cockroach (Blattella germanica); assay: Choice test arena repellency bioassay, adult male German cockroach, 300-second test; assay type: in vivo; settings: for Mean Treated / Mean Untreated: 300-second test; for % repellency: (untreated − treated/300)*100
Description: Test Procedure. Repellency bioassays were conducted to assess the repellent properties of compositions containing catnip steam distillate (nepetalactone), Z,E-nepetalactone, E,Z-nepetalactone and DEET against cockroaches. Certified acetone and certified hexane were also tested in order to evaluate solvent effects. (DEET was dissolved in acetone, because DEET is insoluble in hexane. The tested compounds were dissolved in hexane because hexane was the solvent used to extract these compounds from the distillate). One Whatman 125-mm round filter paper was cut in half. One side was treated with one (1) ml of the test compound and the other side was treated with one (1) ml of solvent. The papers were allowed to dry in a fume hood for approximately two (2) minutes before being placed in a 150-mm Petri dish arena. The relative position of the treated side (i.e., to the right or left) of the dish was randomized using a random number table. […] The hole was stopped using a small piece of tape to prevent the insect from escaping. One adult male German cockroach (Blattella germanica) was selected from the colony and dropped into the pre-formed hole in the Petri dish lid. […] Ten (10) replications were performed for each test compound. Results. Using mean values and their related Standard Error of the Mean values (SEM), repellency of the selected samples was determined as shown in Table 2. Significance due to concentration was determined using ANOVA. […] Comparisons between test compounds were made using a two-tailed paired t-test (“paired t-test”) which indicates “differences” as is known in the art and shown in Table 4 (as compared with a “one-tailed” test, which indicates “greater or less than”). Testing Procedure. The same procedure described in Example 1 was used.

[2] = tested on: antennectomized male German cockroaches; assay: Choice test arena behavioral assay of antennectomized male cockroaches; assay type: in vivo, Blattella germanica; settings: Annectomized male cockroaches
Description: Testing Procedure. Male cockroaches were antennectomized by using a razor blade to remove the antennae as close to the head as possible. The cockroaches were allowed to recover from the procedure for 24 hours before being exposed to the test compounds in the bioassay described in Example 1. Results.

[3] = tested on: German cockroach, Blattella germanica; assay: Choice-test arena bioassay (contact irritancy), German cockroach, Example 6; assay type: in vivo; settings: 300-second period
Description: (§1) A choice-test arena was used to assess irritancy of test solutions to two common household insect pests, the German cockroach (Blattella germanica) and the house fly (Musca domestica). Catnip essential oil obtained by steam distillation of catnip obtained from the same source as described in the above examples, and the two major components of its essential oil, Z,E-nepetalactone and E,Z-nepetalactone (isolated from the essential oil by preparative TLC), were evaluated for behavioral effects of contact irritancy to the German cockroach. The TLC was performed as described in McElvain, S. M. et al., J. Am. Chem. Soc., 1941, 63, 1558-1563. Catnip essential oil and its major constituent Z,E-nepetalactone were tested against the house fly. N,N-diethyl-m-toluamide (DEET) (Aldrich, St. Louis, Mo.) served as a positive control for the choice-test arena assay and as a point of comparison for measuring insect behavioral effects that result from current commercial insect repellents. Test solutions ranging from 10% to 0.1% (vol/vol) active ingredient (a.i.) were made up in acetone and then delivered on to a filter paper for solvent evaporation. […] Choice-test are for German cockroaches and house flies were constructed from plastic Petri dishes. One-half of a 12.5-cm dia. filter paper was treated with 1 ml test solution, and the other was treated with 1 ml of only solvent (control). Both halves of the filter paper were placed in the choice-test arena. Position of the treated filter paper was randomized using a random-number table.
(§2) Individual German cockroaches or house flies were placed in each choice-test arena through a centered hole in the lid of the Petri dish and evaluated for a 300-second period. The amount of time the insect spent on the treated and untreated filter papers were recorded and used to calculate a percentage repellency value: Percentage Repellency=((Time on Untreated-Time on Treated)/300)×100
(§3) Ten replicates of each treatment solution were tested for both German cockroaches and house flies. Details of this assay design and some results have previously been described.

[4] = tested on: house fly, Musca domestica; assay: Choice-test arena bioassay (contact irritancy), house fly; assay type: in vivo; settings: 300-second period
Description: as §1, §2, §3

[5] = tested on: yellow fever mosquitoes, Aedes aegypti; assay: Static-air repellency chamber, spatial and contact repellency, adult female yellow fever mosquitoes; assay type: in vivo; settings: application rate 78.6 μg/cm^2
Description: Test Equipment. In this testing, a static air repellency chamber was used. The apparatus consisted of a 9×60-cm section of glass tubing with a 2-cm hole drilled at the midpoint along the length for central introduction of the insects. All of the testing was conducted in an environmental chamber at ambient temperatures.
Test Methods. The data for spatial repellency was collected at 15 minutes after the introduction of female yellow fever mosquitoes into a static air repellency chamber. Data for the contact repellency was collected after three hours. The concentrations used in the tests are 1% solution (1 ml of it on a 9-cm diameter filter paper). One (1) ml of a 1% (wt/vol) solution of repellent substance containing hexane as a carrier was pipetted onto a 9-cm diameter filter paper results in a concentration of 157 μg/cm^2. The solution contained the desired mass of compound to be tested added to the desired volume of hexane, e.g., for a 1% solution of catnip essential oil, […] was added to 100 ml of hexane.
One milliliter of the solution was applied to one half of a 9-cm diameter round filter paper with an area of 63.6 cm^2 and then allowed to dry before testing. […] Treated filter papers were placed inside the lids of 9-cm glass petri dishes, and placed over the ends of the glass tube. The position of the treated side, to the right or to the left, was selected by using a random-number table. Approximately fifteen unmated adult female mosquitoes were anaesthetized with CO2 and then introduced to the 9×60-cm glass cylinder through the centered 2-cm hole. Timing began 2 minutes after mosquito introduction, and mosquito distribution inside the static-air choice-test apparatus was observed over a 15-minute period for each treatment to determine spatial repellency. Basically the number of mosquitoes in the non-treated half were considered to be repelled and were counted. Percent repellency was considered to be: (Number of Individuals on Untreated Half−Number of Individuals on Treated Half)/15)×100. Contact repellency was defined in this assay as 100% avoidance of the treated filter paper-after three hours. The experimental design was a completely randomized design using six replications of each treatment.
All test methods were the same as described in Example 7, except spatial repellency over a longer period.
Test Methods. […] Also only three replications were used instead of six.

[6] = 0.1% test solution vs solvent-treated half, male
[7] = 0.5% test solution vs solvent-treated half, male
[8] = dose 16 μg/cm^2, male B. germanica, in 300 seconds
[9] = dose 80 μg/cm^2, male B. germanica, in 300 seconds
[10] = 1% test solution vs solvent-treated half, male
[11] = 5% test solution vs solvent-treated half, male

SMILES: CC1=CC[C@@]23[C@@H]([C@@H]12)[C@H](C(C)C)CC[C@H]3C [α-Cubebene, alpha-cubebene]
- Mean Treated ([1]; amount used 0.1% solution): 118 s
- Mean Untreated ([1]; amount used 0.1% solution): 182 s
- % repellency ([1]; amount used 0.1% solution): 21%
- Mean Treated ([1]; amount used 0.5% solution): 99.4 s
- Mean Untreated ([1]; amount used 0.5% solution): 211 s
- % repellency ([1]; amount used 0.5% solution): 36%

SMILES: CCCCCCOC(=O)CCCCC [Hexyl hexanoate]
- Mean Treated ([1]; amount used 1% solution): 142 s
- Mean Untreated ([1]; amount used 1% solution): 158 s
- % repellency ([1]; amount used 1% solution): 5.2%

SMILES: CC1=COC(=O)C2[C@@H]1CC[C@@H]2C (stereo partly drawn) [E,Z-Nepetalactone, trans-cis nepetalactone]
- Mean seconds on treated side ± SEM ([2]; 80 μg/cm^2): 153 ± 15.2 s
- Mean seconds on untreated side ([2]; 80 μg/cm^2): 149 ± 15.3 s
- Percentage Repellency ± SEM ([3]; application rate 16 μg/cm^2): 46.4 ± 11.0b %
- Percentage Repellency ± SEM ([3]; application rate 80 μg/cm^2): 79.4 ± 3.5c %
- Mean Treated [1, 6]: 76.7 s
- Mean Untreated [1, 6]: 216 s
- times less time on the treated side as compared with the untreated side ([1]; 0.5%): ~8 times
- Mean Treated [1, 7]: 31.7 s
- Mean Untreated [1, 7]: 270 s
- Mean seconds on treated side ± SEM ([1]; Non-antennectomized male cockroaches, 80 μg/cm^2): 31.7 ± 5.2 s
- % repellency ([1]; dose 16 μg/cm^2): 46%
- Mean seconds on treated side ± SEM [1, 8]: 76.7 ± 13.7 b seconds
- % repellency ([1]; dose 80 μg/cm^2): 79%
- Mean seconds on treated side ± SEM [1, 9]: 31.7 ± 5.2 c seconds

SMILES: c1ccc2ccccc2c1 [Naphthalene, reference compound]
- Mean Treated ([1]; amount used 1% solution): 117 s
- Mean Untreated ([1]; amount used 1% solution): 184 s
- % repellency ([1]; amount used 1% solution): 22%

SMILES: CC1=COC(=O)[C@H]2[C@@H]1CC[C@@H]2C [Z,E-Nepetalactone, cis-trans nepetalactone]
- Mean seconds on treated side ± SEM ([2]; 160 μg/cm^2): 121 ± 10.6 s
- Mean seconds on untreated side ([2]; 160 μg/cm^2): 180 ± 10.5 s
- Percentage Repellency ± SEM ([3]; application rate 16 μg/cm^2): 16.1 ± 7.4a %
- Percentage Repellency ± SEM ([3]; application rate 80 μg/cm^2): 15.4 ± 6.9a %
- Percentage Repellency ± SEM ([3]; application rate 160 μg/cm^2): 56.8 ± 7.8b %
- Percentage Repellency ± SEM ([3]; application rate 800 μg/cm^2): 68.2 ± 5.7b %
- Mean Treated [1, 6]: 127 s
- Mean Untreated [1, 6]: 176 s
- Mean Treated [1, 7]: 128 s
- Mean Untreated [1, 7]: 174 s
- Mean Treated [1, 10]: 65.4 s
- Mean Untreated [1, 10]: 236 s
- times less time on the treated side as compared with the untreated side ([1]; 5%): ~5 times
- Mean Treated [1, 11]: 47.3 s
- Mean Untreated [1, 11]: 252 s
- Mean seconds on treated side ± SEM ([1]; Non-antennectomized male cockroaches, 160 μg/cm^2): 65.4 ± 11.8 s
- % repellency ([1]; dose 16 μg/cm^2): 16%
- Mean seconds on treated side ± SEM [1, 8]: 127 ± 11.2 a seconds
- % repellency ([1]; dose 80 μg/cm^2): 15%
- Mean seconds on treated side ± SEM [1, 9]: 128 ± 10.4 a seconds
- % repellency ([1]; dose 160 μg/cm^2): 57%
- Mean seconds on treated side ± SEM ([1]; dose 160 μg/cm^2, male B. germanica, in 300 seconds): 65.4 ± 11.8 b seconds
- % repellency ([1]; dose 800 μg/cm^2): 68%
- Mean seconds on treated side ± SEM ([1]; dose 800 μg/cm^2, male B. germanica, in 300 seconds): 47.3 ± 8.7 b seconds
- Percentage Repellency ([4]; application rate 80 μg/cm^2): 87.3%
- Percentage Repellency ([4]; application rate 160 μg/cm^2): 69.3%
- Percentage Repellency ([4]; application rate 800 μg/cm^2): 96.0%

SMILES: CC(C)=CCCC(C)CC=O (stereo not drawn) [Citronellal, citronellal, reference compound]
- Average Percentage Repellency Over Time ([5]; 60 min): 10%
- Average Percentage Repellency Over Time ([5]; 120 min): 19%
- Average Percentage Repellency Over Time ([5]; 360 min): 1%
- Average Percentage Repellency Over Time ([5]; Initial): 79%

SMILES: CC(C)=CCc1c2c(c3occ(-c4ccc(O)c(O)c4)c(=O)c3c1O)C=CC(C)(C)O2 [Pomiferin, pomiferin]
- Mean Treated ([1]; amount used 1% solution): 138 s
- Mean Untreated ([1]; amount used 1% solution): 163 s
- % repellency ([1]; amount used 1% solution): 8.3%

SMILES: CC(C)=CCc1c2c(c3occ(-c4ccc(O)cc4)c(=O)c3c1O)C=CC(C)(C)O2 [Osajin, osajin]
- Mean Treated ([1]; amount used 0.5% solution): 117 s
- Mean Untreated ([1]; amount used 0.5% solution): 184 s
- % repellency ([1]; amount used 0.5% solution): 22%
- Mean Treated ([1]; amount used 1% solution): 103 s
- Mean Untreated ([1]; amount used 1% solution): 197 s
- % repellency ([1]; amount used 1% solution): 31%
